Data taken from patent US8691811B2, “Quinazolinone linked pyrrolo[2,1-c][1,4]benzodiazepine hybrids as potential anticancer agents and process for the preparation thereof” (Council of Scientific & Industrial Research, priority 2008, dated 2014).

Legend:
[1] = system: Colon cancer cell lines; test: NCI cytotoxicity (SRB, 48 h), colon panel; format: cell-based, human; conditions: Colon panel average
Experimental: (§1) The C8-linked quinazolinone-PBD hybrid (5d) has been tested against sixty human tumour cell lines derived from nine cancer types (leukemia, non-small cell lung cancer, colon cancer, CNS cancer, melanoma, ovarian cancer, renal cancer, prostate cancer and breast cancer) as per NCI protocol. For each compound, dose response curves for individual cell lines have been measured at a minimum of five concentrations at 10 fold dilutions. A protocol of 48 h continuous drug exposure has been used, and a sulforhodamine B (SRB) protein assay was used to estimate cell viability or growth. The concentration for 50% cell growth inhibition (GI50), total cell growth inhibition (TGI, 0% growth) and 50% cell death (LC50, […]) compared with the control has been calculated (Table-1). Compound 5d has been evaluated for their in vitro cytotoxicity in sixty cell lines from nine human cancer types of lung (Hop-62, NCI-H226, NCI-H522), leukemia (K-562, SR), colon (HCT-116, HCT-15, HCC-2998), CNS(SF-539), melanoma (SK-MEL-5, UACC-62, M14), ovarian (IGROV1), renal (A498), prostate (PC3) breast (BT-549, MDA-MB-435, HS578T) origin. The results are expressed as percent of cell growth determined relative to that of untreated control cells (Table 2). The representative compound 5d has shown significant cytotoxicity against some cancer cell lines.

[2] = system: Renal cancer cell lines; test: NCI cytotoxicity (SRB, 48 h), renal panel; format: cell-based, human; conditions: Renal panel average
Experimental: as §1

[3] = system: Breast cancer cell lines; test: NCI cytotoxicity (SRB, 48 h), breast panel; format: cell-based, human; conditions: Breast panel average
Experimental: as §1

[4] = system: A549/ATCC; test: NCI cytotoxicity (SRB, 48 h), A549/ATCC; format: cell-based, human; conditions: non-small cell lung
Experimental: as §1

[5] = system: EKVX; test: NCI cytotoxicity (SRB, 48 h), EKVX; format: cell-based, human; conditions: non-small cell lung
Experimental: as §1

[6] = system: HOP-92; test: NCI cytotoxicity (SRB, 48 h), HOP-92; format: cell-based, human; conditions: HOP-92, non-small cell lung
Experimental: as §1

[7] = system: NCI-H322M; test: NCI cytotoxicity (SRB, 48 h), NCI-H322M; format: cell-based, human; conditions: non-small cell lung
Experimental: as §1

[8] = system: HCC-2998; test: NCI cytotoxicity (SRB, 48 h), HCC-2998; format: cell-based, human; conditions: HCC-2998, colon
Experimental: as §1

[9] = system: SF-268; test: NCI cytotoxicity (SRB, 48 h), SF-268; format: cell-based, human; conditions: SF-268, CNS
Experimental: as §1

[10] = system: UACC-257; test: NCI cytotoxicity (SRB, 48 h), UACC-257; format: cell-based, human; conditions: UACC-257, melanoma
Experimental: as §1

[11] = system: OVCAR-4; test: NCI cytotoxicity (SRB, 48 h), OVCAR-4; format: cell-based, human; conditions: OVCAR-4, ovarian
Experimental: as §1

[12] = system: ACHN; test: NCI cytotoxicity (SRB, 48 h), ACHN; format: cell-based, human; conditions: renal
Experimental: as §1

[13] = system: BT-549; test: NCI cytotoxicity (SRB, 48 h), BT-549; format: cell-based, human; conditions: BT-549, breast
Experimental: as §1

[14] = system: duplex-form calf thymus DNA (CT-DNA); test: Thermal denaturation studies with calf thymus DNA; format: binding; conditions: [PBD]:[DNA] molar ratio 1:5, CT-DNA 100 μM, ligand 20 μM, pH 7.00
Experimental: Compounds have been subjected to thermal denaturation studies with duplex-form calf thymus DNA (CT-DNA) using a modification of a reported procedure. Working solutions in aqueous buffer ([…] NaH2PO4/Na2HPO4, 1 mM Na2EDTA, pH 7.00+0.01). containing CT-DNA (100 μm in phosphate) and the PBD (20 μm) have been prepared by addition of concentrated PBD solutions in DMSO to obtain a fixed [PBD]/[DNA] molar ratio of 1:5. The DNA-PBD solutions have been incubated at 37° C. for 0 and 18 hrs prior to analysis. Samples have been monitored at 260 nm using a Beckman DU-800 spectrophotometer fitted with high performance temperature controller, and heated at 1° C. min^−1 in the 40-110° C. range. DNA helix→coil transition temperatures (Tm) have been obtained from the maxima in the d(A260)/dT derivative plots. Drug-induced alterations in DNA melting behavior are given by: ΔTm=Tm(DNA+PBD)−Tm(DNA alone), where the Tm value for the PBD-free CT-DNA is 68.5±0.01.
The DNA-binding for these novel C8-linked quinazolinone-PBD hybrids has been examined by thermal denaturation studies using calf thymus (CT) DNA. […] Data for 5b, 5c, 5d, and 5k, 5l, 5m and DC-81 are included in Table 5 for comparison.

Which “Log10 GI50” value [1] does the source give for `COc1cc2c(cc1OCCCCCOc1ccc(-n3c(C)nc4ccccc4c3=O)cc1)N=C[C@@H]1CCCN1C2=O` [5d, 7-methoxy-8-{5-[4-(2-methyl-4-oxo-3,4-dihydro-3-quinazolinyl)phenoxy]pentyloxy-}-(11aS)-1,2,3,11a-tetrahydro-5H-pyrrolo[2,1-c][1,4]benzodiazepine-5-one] here?
The value was −6.59 mol/L.

What about the “Log10 LC50” value [1] of the same compound?
Its value is −5.49.

And the “Log10 GI50” value [2]?
The value was −6.62 mol/L.

And the “Log10 LC50” value [2]?
The value was −5.09.

What about the “Log10 GI50” value [3] of the same compound?
Its value is −6.66 mol/L.

What about the “Log10 LC50” value [3] of the same compound?
The value was −4.90.

And the GI50 [4]?
Its GI50 is 230 nM.

And the GI50 [5]?
The GI50 was 870 nM.

What about the GI50 [6] of the same compound?
Its GI50 is 350 nM.

And the GI50 [7]?
The GI50 was 260 nM.

What about the GI50 [8] of the same compound?
The GI50 was 260 nM.

What about the GI50 [9] of the same compound?
The GI50 was 260 nM.

And the GI50 [10]?
Its GI50 is 390 nM.

And the GI50 [11]?
Its GI50 is 370 nM.

What about the GI50 [12] of the same compound?
The GI50 was 290 nM.

What about the GI50 [13] of the same compound?
The GI50 was 110 nM.

And the “ΔTm after incubation at 37° C. for 0 h” value ([14]; 0 h)?
The value was 1.1 °C.

And the “ΔTm after incubation at 37° C. for 18 h” value ([14]; 18 h)?
The value was 2.3 °C.
